From patent US11806393B2, “Flavivirus peptide sequences, epitopes, and methods and uses thereof” (priority 2017, dated 2023)

Columns and labels:
Type in all cases: cell-based, mouse
CD44+ CD4+ T cells [1] = assay: ICS, DENV2 S221-infected Ifnar1-/- HLA-DRB1*0101 mice; conditions: for cytokines produced by DENV2-primed CD4+ T cells on peptide stimulation / cross-reactive response by DENV2-primed CD4+ T cells: DENV2 S221, day 7
Experimental: Ifnar1^−/− HLA-DRB1*0101 mice were infected intraperitoneally with 2×10^3 FFU of DENV2 strain […] for 7 days. Splenocytes were stimulated in vitro with the indicated ZIKV-derived HLA-DRB1*0101-binding peptides for 6 h. The frequency of CD44^+ CD4^+ T cells producing IFNγ, TNF, or IFNγ plus TNF (A) or IL-2 (B) were detected using the ICS assay. Data represent the mean±s.e.m. of three independent experiments (n=3-4 mice/experiment; total 10 mice). *P<0.05, **P<0.01, ***P<0.001, ****P<0.0001 by two-tailed Mann-Whitney test. Negative and positive refer to cells incubated alone or with PMA/ionomycin, respectively.
(§1) For the 30-peptide epitope screen, 5-week-old female or male mice were infected retro-orbitally (r.o.) with either 1×10^2 focus-forming units (FFU) of ZIKV SD001 or 2×10^3 FFU of DENV2 S221 in 200 μl of 10% fetal bovine serum in phosphate-buffered saline (FBS/PBS). Seven days after infection, spleens were removed and single-cell splenocyte suspensions were prepared. A total of 1×10^6 splenocytes was plated in each well of a 96-well U-bottom plate and stimulated with individual peptides (20 μg crude peptide per well) for 6 h. One hour into the incubation, brefeldin A (GolgiPlug, BD Biosciences) was added to the cells. Positive and negative controls were splenocytes stimulated with phorbol-12-myristate-13-acetate (PMA, 0.1 μg/ml) and ionomycin (1 μg/ml) or incubated alone, respectively.
(§2) After incubation of splenocytes with peptides or PMA/ionomycin, cells were harvested, washed, and incubated with Fc Block (CD16/CD32 mAb 2.4G2, BD Biosciences), followed by staining with fixable Live/Dead blue viability stain (Life technologies) and the following antibodies: PerCP-Cy5.5-conjugated anti-CD3 mAb (clone 145-2C11, Tonbo), APC-eFluor780-conjugated anti-CD4 mAb (clone GK1.5, Invitrogen), Brilliant Violet (BV) 785-conjugated anti-CD44 mAb (clone IMT, Biolegend), PE-conjugated anti-CD11a (clone M17/4, Biolegend), BV605-conjugated anti-CD49d (clone 9C10(MFR4.B, Biolegend), PE-conjugated anti-CD25 mAb (clone PC61, Biolegend), PE-conjugated or biotin-conjugated anti-CD185 mAb (CXCR5, clone SPRC15; Invitrogen), BV 605-conjugated anti-[…] mAb (PD1, clone 29F.1A12; Biolegend), and/or BV 421-conjugated streptavidin (#405225, Biolegend). Cells were then fixed and permeabilized using Cytofix/Cytoperm solution (BD Biosciences), followed by staining with FITC-conjugated anti-IFNγ mAb (clone XMG1.2, Tonbo), Alexa Fluor 700- or APC-conjugated anti-TNF mAb (clone MP6-XT22, eBioscience), PE-, BV 421-, or BV 711-conjugated anti-IL-2 mAb (clone JES6-5H4, Biolegend), APC-conjugated anti-IL-4 mAb (clone 11B11, Biolegend), PE-conjugated anti-IL-5 mAb (clone TRFK5, eBioscience), BV510-conjugated anti-IL-17A mAb (clone 17B7, eBioscience), and/or Alexa Fluor 700-conjugated anti-FoxP3 mAb (clone FJK-16S, eBioscience). Data were collected using an LSR Fortessa flow cytometer (BD Biosciences) and analyzed using FlowJo software X 10.0.7 (Tree Star).

CD44+ CD4+ T cells [2] = assay: ICS, ZIKV SD001-infected Ifnar1-/- HLA-DRB1*0101 mice; conditions: for cytokines produced by ZIKV-primed CD4+ T cells on peptide stimulation: ZIKV SD001, day 7; for identification as Th1 epitope (IFNγ, TNF, IL-2 ICS): ZIKV-primed CD4+ T cells
Experimental: Ifnar1^−/− HLA-DRB1*0101 mice were infected retro-orbitally with 1×10^2 FFU of ZIKV strain SD001 for 7 days. Splenocytes were stimulated in vitro with the indicated ZIKV-derived HLA-DRB1*0101-binding peptides for 6 h, and the frequency of CD44^+ CD4^+ T cells producing IFNγ, TNF, or IFNγ plus TNF (A), IL-2 (B), and IL-17 (C) were detected using the ICS assay. Data represent the mean±s.e.m. of four independent experiments (n=3-5 mice/experiment; total 16 mice). *P<0.05, **P<0.01, ***P<0.001, ****P<0.0001 by two-tailed Mann-Whitney test. Negative and positive refer to cells incubated alone or with PMA/ionomycin, respectively. […]
as §1, §2

CD8+ T cells = assay: IFNγ ELISPOT, ZIKV-infected Ifnar-/- HLA-A*0101 transgenic mice; conditions: HLA-A*0101 mice; for SFC/10^6 CD8+ T cells, FSS13025: 7 days after ZIKV FSS13025; for SFC/10^6 CD8+ T cells, MR766: 7 days after ZIKV MR766
Experimental: Two ZIKV strains, MR766 (Uganda, 1947) and FSS13025 (Cambodia, 2010), were obtained from the World Reference Center for Emerging Viruses and Arboviruses (WRCEVA). The mouse-adapted DENV2 strain S221 is a triple-plaque purified clone derived from DENV2 D2S1038. Both ZIKV and DENV2 were amplified in C6/36 mosquito cells, and viral titers were measured using baby hamster kidney (BHK)-21 cell-based focus forming assay (FFA). For epitope screening, 5-week old mice (female or male) were infected retro-orbitally (R.O.) with either 1×102 FFU of ZIKV FSS13025 or ZIKV MR766, or 2×10^4 FFU of DENV2 S221 in 200 μl 10% FBS/PBS. Seven days after infection, CD8^+ T cells were isolated from splenocytes and used for ELISPOT assay, while the splenocytes were directly used for ICS assay. Additionally, 5-week old mice were inoculated I.P. with 2×10^3 FFU of DENV2 S221 for 4 weeks.
CD8^+ T cells were isolated from splenocytes using magnetic bead positive selection (Miltenyi Biotec, Germany) 7 days after virus infection. 2×10^5 CD8^+ T cells were stimulated with 1×10^5 LPS-blasts loaded with 10 μg of individual peptide in 96-well flat-bottom plates (IMMOBILON™-P; Millipore, Bedford, Mass.) that were coated with anti-IFNγ mAb (clone AN18; Mabtech, Stockholm, Sweden) in triplicate. Concanavalin A (ConA) was used as positive control. After 20 hours of incubation, biotinylated anti-mouse IFNγ mAb (R4-6A2; Mabtech), followed by ABC peroxidase (Vector Laboratories, Burlingame, Calif., USA) and then 3-amino-9-ethylcarbazole (Sigma-Aldrich, St. Louis, Mo., USA) were added into the wells. […] A peptide inducing a magnitude of >500 SFCs/10^6 CD8^+ T cells was considered as an immunodominant peptide.
The following results are with respect to FIG. 9, where IFNγ ELISPOT was performed using CD8+ T cells isolated from Ifnar^−/− HLA-B*0702 transgenic mice (a and b) and Ifnar^−/− HLA-A*0101 transgenic mice (d and e) 7 days after retro-orbital (R.O.) infection with 1×10^2 FFU of ZIKV strain FSS13025 or MR766. Two independent experiments performed in triplicate were averaged and the error bars represent the SEM. The data are expressed as the mean number of spot forming cells (SFC) per 10^6 CD8^+ T cells. The criteria for positivity were net SFC per 10^6 cells of >20, and a stimulation index of >2.0 when compared with the negative control. Dotted lines represent the cutoff value. * Indicates a positive response. All positive peptides were grouped according the corresponding ZIKV protein (c and f); white and black bars are the total IFNγ response of all identified positive peptides from an indicated protein; numbers in parentheses are the number of positive peptides in this protein. ConA denotes Concanavalin A.

[3] = 7 days after DENV2 S221, 6 h stimulation
[4] = 7 days after ZIKV SD001, 6 h stimulation

Sequence	cytokines produced by DENV2-primed CD4+ T cells on peptide stimulation (CD44+ CD4+ T cells [1])	cytokines produced by ZIKV-primed CD4+ T cells on peptide stimulation (CD44+ CD4+ T cells [2])	SFC/10^6 CD8+ T cells, FSS13025 (CD8+ T cells) [SFC/10^6 CD8+ T cells]	SFC/10^6 CD8+ T cells, MR766 (CD8+ T cells) [SFC/10^6 CD8+ T cells]	further results
LPFVMALGLTAVRLV [NS2A134-198]	induce TNF production	did not elicit a response by ZIKV-primed cells	–	–	% CD4+ CD44+ T cells (DENV) TNFα+ (CD44+ CD4+ T cells [1]; [3]): 0.397%
MSALEFYSY [FSS/MR-NS4B270-278]	–	–	378	–	–
MTERFQEAI [FSS/MR-NS4A14-22]	–	–	–	266	–
NLEYRIMLSVHGSQH [E134-148]	induced only IL-2-producing cells	stimulated only IL-2 production	–	–	% CD4+ CD44+ T cells (DENV) IL-2+ (CD44+ CD4+ T cells [1]; [3]): 0.459%; cross-reactive response by DENV2-primed CD4+ T cells (CD44+ CD4+ T cells [1]): elicited cross-reactive responses; % CD4+ CD44+ T cells (ZIKV) IL-2+ (CD44+ CD4+ T cells [2]; [4]): 0.19%; identification as Th1 epitope (IFNγ, TNF, IL-2 ICS) (CD44+ CD4+ T cells [2]): Th1 epitopes
VTRRGNAYY [FSS-C125-prM8]	–	–	–	266	–
WAIYAALTTFITPAV [NS4B40-54]	induced only TNF-producing cells	stimulated IFNγ plus TNF production	–	–	% CD4+ CD44+ T cells (DENV) TNFα+ (CD44+ CD4+ T cells [1]; [3]): 0.367%; cross-reactive response by DENV2-primed CD4+ T cells (CD44+ CD4+ T cells [1]): elicited cross-reactive responses; % CD4+ CD44+ T cells (ZIKV) INFγ+ TNFα+ (CD44+ CD4+ T cells [2]; [4]): 0.049%; identification as Th1 epitope (IFNγ, TNF, IL-2 ICS) (CD44+ CD4+ T cells [2]): Th1 epitopes
YAQMWQLLY [FSS/MR-NS5509-517]	–	–	313	225	–
YLAGASLIY [FSS/MR-NS4B231-239]	–	–	1646	1574	immunodominance in IFNγ ELISPOT (CD8+ T cells; immunodominant: >500 SFCs/10^6 CD8+ T cells, shared by both ZIKV strains): most immunodominant epitope
YLDKQSDTQY [FSS/MR-E81-90]	–	–	495	258	–
